# pEC50, pIC50: −log10 of the molar value. Activity calls are given as the source filed them.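 Rule for the calls: active = compounds giving half or more protection of infected cells from virus-caused growth loss, again on retest; inactive = the rest.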
# Tested on: CEM cells HIV-1 protection, formazan growth assay
# Experiment: NCI AIDS Antiviral Assay
# Conditions: for pIC50: measured here: growth of uninfected CEM cells
# How it was run: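 Protection of CEM cells against HIV-1 was scored from cell growth (soluble formazan) across five concentrations, with parallel uninfected cells. Lack of protection may reflect toxicity.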
Compound,pEC50,pIC50,outcome
O=C(CCc1ccccc1)CC1OC(=O)C(Cl)=C1Cl (stereo not drawn),< 4.48,< 4.48,
O=C1c2c(ccc3c2CCCC3)CC12Cc1ccc3c(c1C2=O)CCCC3,< 3.70,< 3.70,
O=C(C=P(c1ccccc1)(c1ccccc1)c1ccccc1)c1ccccc1-c1ccccc1C(=O)C=P(c1ccccc1)(c1ccccc1)c1ccccc1,< 6.00,6.97,
N#Cc1c(N2CCCC2)ncn(Cc2ccccc2)c1=S,< 3.70,< 3.70,
Cc1cc(=O)oc2c1cc(OCC(=O)OCCN1CCCCC1)c1occ(C)c12,,,inactive
Cc1c(N)nc(C2CC(=O)N2CC(N)C(N)=O)nc1C(=O)NC(C(=O)NC(C)C(O)C(C)C(=O)NC(C(=O)NCCc1nc(-c2nc(C(=O)NCCNCC(C)O)cs2)cs1)C(C)O)C(OC1OC(CO)C(O)C(O)C1OC1OC(CO)C(O)C(OC(N)=O)C1O)c1cnc[nH]1 (stereo not drawn),,,inactive
Cc1ccc(/C=C/C(=O)c2c([O-])on[n+]2-c2ccccc2)cc1,< 3.70,5.58,
COc1ccccc1N=Nc1c(-c2ccccc2)nn(C(=O)CC(=O)Nc2ccccc2Cl)c1-c1ccccc1,< 4.88,< 4.88,
Cc1cc(OCC(=O)N/N=C/C(Br)=C/c2ccccc2)nc(SCC(=O)N/N=C/C(Br)=C/c2ccccc2)n1,< 3.70,4.75,
c1csc(-c2cc(-c3ccsc3)c(-c3cccs3)s2)c1,< 3.70,3.97,
O=S1(=O)OCCOS(=O)(=O)C1Cc1ccccc1,< 3.35,4.30,
COc1cc(C)c2c(c1)CN1CN2Cc2cc(OC)cc(C)c21,,,inactive
Cc1ccc(-c2c(C#N)c(N)nc3c2CCS(=O)(=O)c2ccccc2-3)cc1,< 3.70,4.11,
CCOC(CCNCC(OCC)OCC)OCC,< 3.70,< 3.70,
CC(=O)Nc1ccc(C(=O)NN2C(=O)C(Cl)C2c2cccc([N+](=O)[O-])c2)cc1 (stereo not drawn),< 3.70,4.07,
Cc1cccc(NP2(Nc3cccc(C)c3)=NP(Nc3cccc(C)c3)(Nc3cccc(C)c3)=NP(Nc3cccc(C)c3)(Nc3cccc(C)c3)=NP(Nc3cccc(C)c3)(Nc3cccc(C)c3)=N2)c1,< 3.70,< 3.70,
CCN(CC)c1c(C)nnc2c(-c3ccccc3)cnn12,< 4.73,< 4.73,
S=C(Cc1ccc2c(c1)Sc1ccccc1O2)N1CCOCC1,< 3.70,4.56,
O=C(CC(C(=O)c1ccsc1)c1ccccc1)c1ccccc1 (stereo not drawn),< 3.70,3.76,
CC(C)(CO)N=Cc1ccccc1[O-].CC(C)(CO)N=Cc1ccccc1[O-].[Co+2],< 3.82,< 3.82,
O=c1[nH]c2ccccc2c(O)c1CCCC1CCCCC1,< 3.70,3.88,
CCCc1cc(=O)oc2c3c(cc(OC(C)C)c12)O[C@H](C)[C@@H](C)/C3=N/O,< 3.70,5.42,

Compound,pEC50,pIC50,outcome
COc1ccc(N=NC(=O)NC(CC(C)C)C(=O)NC(CC(C)C)C(=O)O)cc1 (stereo not drawn),< 3.70,5.14,
c1ccc2c3ccn4ccc5c6ccccc6[nH]c5c4c-3nc2c1,< 5.00,6.29,
O=C(O)[C@@H]1CCC(=O)N1C(c1ccc2c(c1)OCO2)c1ccc2c(c1)OCO2,< 3.70,< 3.70,
COc1cc(-c2oc3cc(OC)c(OC)c(OC)c3c(=O)c2OC)cc(OC)c1OC,< 3.70,4.58,
CC(=O)OC1=C2CC[C@@H]3C(CC[C@@]4(C)C3CC[C@@H]4OC(C)=O)[C@@]2(C)CC(C#N)C1=O (stereo partly drawn),,,inactive
Cc1[nH]n(-c2nc(O)c(-c3ccccc3)c(=O)[nH]2)c(=O)c1CCO,< 3.70,< 3.70,
CCC(=O)N(c1ccccc1)C(C)CN1CCC(O)(c2cccc(C(F)(F)F)c2)CC1 (stereo not drawn),< 3.70,4.13,
CC(C(N)C(=O)NC(C(=O)O)C1OC(c2c[nH]c(=O)[nH]c2=O)C(O)C1O)C(O)c1ccc(O)cn1 (stereo not drawn),,,inactive
NNC(=O)/C(=C/c1ccc(Cl)cc1Cl)NC(=O)c1ccccc1,< 3.87,3.96,
CSC(=Nc1ccccc1)c1c(C)[nH]n(-c2ccccc2)c1=O,< 3.70,3.90,
CC1CCCCC12NC(=O)NC2=O (stereo not drawn),< 3.70,< 3.70,
O=c1c2ccccc2nc2ccc3c(Cl)[nH][nH]c3c12,,,inactive
CO[C@@H]1/C=C\C=C(/C)C(=O)NC2=CC(=O)C(NCCN(C)C)=C(C[C@@H](C)C[C@@H](OC)[C@@H](O)[C@H](C)/C=C(\C)[C@H]1OC(N)=O)C2=O,< 5.70,6.99,
c1ccc(C[P+](c2ccccc2)(c2ccccc2)c2ccccc2)cc1,< 3.70,5.41,
ClC(c1ccccc1)(c1ccccc1)c1cccc(-c2cccc(C(Cl)(c3ccccc3)c3ccccc3)c2)c1,,,inactive
O=[N+]([O-])c1ccc(Nc2ccccc2)c2nonc12,< 4.06,4.38,
COC(=O)CN(CC(=O)NCCCBr)C1CCCCC1N(CC(=O)OC)CC(=O)OC (stereo not drawn),< 3.70,< 3.70,
Cc1cc2c(cc1C)C(=O)C1(C2)Cc2cc3c(cc2C1=O)CCC3 (stereo not drawn),< 4.00,< 4.00,
C/C(=N/O)C1CC(C)([N+](=O)[O-])CCC1(C)O (stereo not drawn),< 3.70,< 3.70,
COC(=O)C=C(c1cc(Cl)c(OC)c(C(=O)OC)c1)c1cc(Cl)c(OC)c(C(=O)OC)c1,< 3.70,4.75,
CCOC(=O)C(F)(F)C(=O)OCC,< 3.70,< 3.70,
Cc1cc([N+](=O)[O-])ccc1Nc1cccc(Cl)c1C,,,inactive

Compound,pEC50,pIC50,outcome
C[n+]1c2ccccc2c(CNC(CCC(N)=O)C(=O)O)c2ccccc21 (stereo not drawn),,,inactive
CCSC(=O)C1(C)Cc2ccccc2O1 (stereo not drawn),,,inactive
O=C1CC(CC(O)C(O)C(O)CO)CC(=O)N1 (stereo not drawn),< 3.70,< 3.70,
O=S(=O)(NCCSSCCNS(=O)(=O)c1ccc(F)cc1)c1ccc(F)cc1,< 3.70,5.05,
Cc1cn(C2C=CCCC2O)c(=O)[nH]c1=O (stereo not drawn),< 3.70,< 3.70,
CCO/C=C(/C#N)C(=O)OC,,,inactive
CNS(=O)(=O)NNS(=O)(=O)c1ccc(C)cc1,< 3.33,3.84,
CCCC1C(CC)C(NC)C(C#N)(C#N)C1(C#N)C#N (stereo not drawn),< 3.70,4.99,
O=C(Cn1ccnc1[N+](=O)[O-])NCc1ccccc1,,,inactive
COc1ccc(C2=NNc3n[nH]c(=S)n3N2)cc1OC,< 4.19,< 4.19,
CC(=O)Oc1cc2c(cc1OCC(F)(F)F)[C@H]1CC[C@]3(C)[C@@H](OC(C)=O)CC[C@H]3[C@@H]1CC2=O,< 3.70,4.65,
O=C(O)c1cc(C(=O)O)c(C(=O)O)c(C(=O)O)c1C(=O)O,,,inactive
C=C1c2[nH]c3c([N+](=O)[O-])c(OC)ccc3c2CCN1C(C)=O,,,inactive
O=C(O)c1cc(O)c2c(=O)c3c(O)cc(O)c4c5c(O)cc(O)c6c(=O)c7c(O)cc(C(=O)O)c8c1c2c(c34)c(c65)c78,,,inactive
CC(=O)[C@@H](C)C(=O)N1C(=O)OC[C@@]12[C@@H]1CC[C@@H](C1)C2(C)C,< 3.70,< 3.70,
O=C(Cc1nc2ccccc2[nH]1)N/N=C1\SCC(=O)N1c1ccc(Cl)cc1,< 3.74,< 3.74,
O=[N+]([O-])c1ccc(-n2nnc(C3=NCCN3)c2-c2ccccc2)cc1,< 4.52,< 4.52,
CN(c1ccccc1)S(=O)(=O)c1ccc([N+](=O)[O-])cc1,< 3.70,3.96,
COc1cccc(/C=C/c2nccc3ccccc23)c1OC,< 3.70,4.89,
CC(=O)OCC12C(=O)C[C@@H](C)C3(CC(c4ccoc4)OC3=O)C1CCC(OC(C)=O)C21CO1 (stereo partly drawn),< 3.70,3.87,
NC(CCCC(N)P(=O)(O)O)P(=O)(O)O (stereo not drawn),,,inactive
Cc1ccc(C2=Nc3c(c(C)nn3-c3ccccc3)N=C(C(=O)O)C2)cc1,< 3.70,4.12,

Compound,pEC50,pIC50,outcome
CCOC(=O)C1(C#N)C(C#N)(C#N)C12CCCCC2 (stereo not drawn) (tested in a mixture with another compound),< 3.70,5.22,
c1cc2nnc1SCCCSc1ccc(nn1)SCCCS2,< 3.90,3.94,
Clc1ccc2c(c1)Oc1ccccc1C=N2,< 3.44,5.20,
NC(=O)c1c(N)ncn1C1OC(CO)C(F)C1O (stereo not drawn),< 3.70,< 3.70,
Cn1cnc([N+](=O)[O-])c1Sc1nc2ccccc2s1,< 4.61,5.49,
O=c1nc(/C=C/c2ccccc2Cl)cc2n1CCN2CCO,,,inactive
NC(=O)N/N=C(\Cc1nc2ccc(Cl)cc2[nH]c1=O)C(=O)Nc1ccc(Cl)cc1Cl,< 4.11,< 4.11,
O=C1CCCC2CCCCN12 (stereo not drawn),,,inactive
COc1ccc(CCn2cncn2)cc1,< 2.98,< 2.98,
CCOC(=O)C[N+]1(C)C2CCC1CC(O)C2 (stereo not drawn),< 3.70,< 3.70,
CCOC(=O)C(C(=O)OCC)C(NC(=O)Nc1cc(C(F)(F)F)ccc1OC)(C(F)(F)F)C(F)(F)F,,,inactive
CCCCCCCSc1nc2c(C(=O)OCC)ncn2c2ccccc12,< 4.71,< 4.71,
O=c1[nH]c(=O)n(COCc2ccccc2)c2ccsc12,,,inactive
Nn1c(CCCCCCCCc2nnc(COc3ccc(Cl)cc3)n2N)nnc1COc1ccc(Cl)cc1,< 3.70,4.07,
COCCN1C(=O)C(NC(C)=O)C1COC(C)(C)C (stereo not drawn),< 3.04,< 3.04,
CN1C2CCC1CC1(C2)SCCS1,,,inactive
Cc1ccc(/C=C2\CCCCC2=O)cc1,,,inactive
C(/C=C\c1ccccc1)=NCCCCCCN=C/C=C/c1ccccc1,< 4.70,4.91,
COC(=O)C1=C(C=O)C2C=CC1C2 (stereo not drawn),,,inactive
COc1ccc2nc3nc(-c4ccccc4)c(-c4ccccc4)nc3nc2c1,7.09,5.40,
O=C(O)c1ccc([N+](=O)[O-])cc1S(=O)(=O)O,< 3.70,< 3.70,
O=C(N/N=C/c1ccc(O)cc1)c1ccc(OCc2nc3ccccc3[nH]2)cc1,< 3.70,< 3.70,
